# Data as given in ChEMBL document CHEMBL1154506, “Discovery and development of the anticancer agent salinosporamide A (NPI-0052)” (Bioorg Med Chem, 2009).
# Columns and labels:
# [1] = system: HCT-116; test: Cytotoxicity against human HCT116 cells; type: functional, cell-based
# [2] = Cytotoxicity against human NCI60 cells; type: functional
structure (smiles),measurement,setting,value
C[C@@]12OC(=O)[C@]1([C@@H](O)[C@@H]1C=CCCC1)NC(=O)[C@@H]2CCCl [MARIZOMIB],IC50,[1],≤ 2 ng/mL
same,GI50,[2],< 10 nM
